conditions: acidic group

Point of comparison: `O=Cc1cc([N+](=O)[O-])cc(Br)c1O`, pKa 3.48. Against it:
- Cc1nnn[nH]1 — higher, 5.52
- CC(C)C(O)C(C(=O)O)c1ccc(-c2ccccc2)cc1 (stereo unspecified) — higher, 4.13
- Nc1ncnc2cn[nH]c12 — higher, 10.2
- CCN(CC)CC(=N\[O-])/C(C)=N/O — higher, 11.9
- O[n+]1c2ccccc2cc2ccccc21 — lower, 1.37
- Cc1ccc(C(=O)O)c([N+](=O)[O-])c1 — lower, 2.68
- C=CCC1(C2=CCCCC2)C(=O)[N-]C(=S)NC1=O — higher, 11.7
- COc1ccc(C(=O)O)cc1C — higher, 4.35
- CC[C@@H]1OC(=O)[C@@H](C)[C@H](O)[C@@H](C)[C@H](O[C@H]2O[C@@H](C)C[C@@H]([N+](C)(C)O)[C@@H]2O)[C@]2(C)C[C@H](C)C3(O[C@]1(C)C=C3C)O2 — higher, 4.3
- C=C(C)C1=C(O)CC(C)CC1 (stereo unspecified) — higher, 11.9
- O=C([O-])CS — higher, 10.2
- Nc1ccc(B(O)O)cc1 — higher, 9.17
- CC(C)CNC(O)=S — lower, 0.38
- C=CCc1c(C)nn(C)c1O — higher, 10.5
- Oc1cccc(Cl)c1Cl — higher, 7.71
- CC(C[Si](C)(C)CCCCl)C(=O)O (stereo unspecified) — higher, 5.05
- C[C@@H]([NH3+])C(=O)N1CCC[C@H]1C(=O)O — lower, 3.04
- O=C(CC(=O)c1ccccc1)Nc1ccccc1[N+](=O)[O-] — higher, 9.54
- O=C(O)C[C@@H]1NC(=O)CNC1=O — higher, 3.93
- N#CC(C#N)C(c1ccccc1)C(C#N)C#N — higher, 6.19
- O=C(Oc1cccc(Cl)c1)C1c2ccccc2-c2ccccc21 — higher, 10.2
- CC[NH+]1CCC[C@@H]1CNC(=O)c1c(O)cccc1OC — higher, 8.7
- CCOP(=O)([O-])NS(=O)(=O)c1ccccc1 — higher, 6.5
- [NH3+][C@@H](CCCCN1C(=O)C[C@H]([NH3+])C1=O)C(=O)O — lower, 2.5
- CC(=O)c1ccc(O)c(=O)cc1 — higher, 5.01
- O=C(O)CSc1ccccc1 — within 0.2 log units, 3.52
- Cn1c(=S)[nH]c2cc3c(cc21)CCCC3 — higher, 10.8
- O=[N+]([O-])c1ccccc1-c1nnn[nH]1 — lower, 2.98
- Oc1oc(-c2ccccc2)nc1Cc1ccccc1 — higher, 8.72
- [NH3+]CCCC#CC#CCCC(=O)O — higher, 4.12
- [NH3+]C(CC(=O)O)c1cccc[nH+]1 (stereo unspecified) — lower, 1.3
- CC[Se](=O)O — higher, 5.28
- COc1cc(CN)ccc1O — higher, 10.5
- CC(Cl)C(=O)O (stereo unspecified) — lower, 2.88
- O=C(O)c1[nH]c[nH+]c1C(=O)[O-] — higher, 4.27
- O=C(O)c1ccc[nH+]c1 — lower, 2.03
- Cc1cc(Nc2ccc([O-])cc2)c(C(C)C)cc1O — higher, 10.7
- CS(=O)O — lower, 2.35
- O=C(NBr)c1ccccc1 — higher, 7.3
- O=C1C[C@H]2C(=O)NC(=O)[C@H]2N1 — higher, 8.15
- CC(=O)C(Cc1ccc(C#N)cc1)C(C)=O — higher, 9.69
- N#CCCC(=O)O — higher, 3.98
- O=[N+]([O-])c1ccc(-c2nnn[nH]2)cc1 — lower, 3.08
- CC[NH+](CC)Cc1c(O)c(Cl)cc(Cl)c1Cl — higher, 5.13
- O=C(O)C[NH+](CC(=O)O)Cc1cc([N+](=O)[O-])ccc1O — lower, 2.4
- NS(=O)(=O)c1ccc(P(=O)([O-])[O-])cc1 — higher, 10
- CCCCCc1c(-c2ccccc2)nn(-c2ccccc2)c1O — higher, 7.3
- CC(C)=C=CC(C)(C)C(=O)O — higher, 4.7
- O=C(O)c1csc2ccccc12 — higher, 4.24
- CCC(Oc1ccccc1C)C(=O)O (stereo unspecified) — within 0.2 log units, 3.43
- CC(C)(C)P(=O)(O)C(C)(C)C — higher, 4.24
- CC(=O)/C(C[NH+]1CCCCC1)=N\O — higher, 7.05
- Cc1cc(C2(c3ccc(O)c(C)c3)OS(=O)(=O)c3c(Br)c(Br)c(Br)c(Br)c32)ccc1O — higher, 7.53
- COc1cccc(/C=C/C(=O)O)c1 — higher, 4.38
- Cc1cc(C)nc(NS(=O)(=O)c2ccc(O)cc2)n1 — higher, 7.52
- CCCCCC(=O)CC(C)=O — higher, 9.2
- CC(C)(C(=O)O)C(C(N)=O)c1ccccc1 (stereo unspecified) — higher, 4.8
- Cc1ccc(O)cc1[S+](C)C — higher, 8.01
- CC(=O)c1cc(C(=O)C(C)(C)C)[nH]n1 — higher, 9.7
- C(C[NH2+]CCc1nnn[nH]1)[NH2+]CCc1nnn[n-]1 — higher, 4.09
- Oc1c(Cl)cc(Cl)c(Cl)c1C[NH+]1CCCCC1 — higher, 5.06
- COc1ccc(CCC(=O)O)cc1 — higher, 4.72
- CCOC(=O)C1CCCCC1=O (stereo unspecified) — higher, 11.9
- Cc1cccc(CCCCCCCC(=O)O)[nH+]1 — higher, 4.6
- Clc1c(Cl)c(Cl)c2[nH]nnc2c1Cl — higher, 4.52
- O=C1NC(=O)[C@@H]2CCC[C@H]12 — higher, 9.53
- Cc1cc2cccc(O)c2nc1C — higher, 10.2
- Cc1ccc(C(=O)c2cc[nH]n2)cc1 — higher, 12
- CN(C)c1cccc2c(S(=O)(=O)NCC(=O)O)cccc12 — higher, 4.4
- O=C(O)c1ccc(/N=C/c2ccccc2)cc1 — higher, 4.47
- Oc1nc2cc3ccccc3cc2[nH]1 — higher, 11.6
- c1ccc(-c2nc3ncncc3[nH]2)cc1 — higher, 8.09

same assay, conditions: basic group

Point of comparison: `C[C@@H]([C@H](O)c1ccccc1)N(C)C`, pKa 9.22. Against it:
- Nc1ccc2[nH]c(CCc3ccccc3)nc2c1 — lower, 7.2
- Nc1cccc2nnn([C@@H]3C[C@@H](O)[C@H](CO)O3)c12 — lower, 1.8
- CSc1nc2cncnc2n1C — lower, 2.98
- N[C@@H](C(=O)[O-])[C@H](O)C(=O)[O-] — lower, 9
- Cc1cc([S-])nc([S-])n1 — higher, 12
- O=[N+]([O-])c1cccc2nc3ccccc3c(NCCCO)c12 — lower, 7.55
- Nc1ncnc2cn[nH]c12 — lower, 5
- c1ccc2c(c1)[NH+]=C(c1ccncc1)[NH2+]2 — lower, 1.96
- c1ccc(NC2CCCC2)cc1 — lower, 5.3
- CC1=Nc2ccc(C)cc2N=C(C)C1 — lower, 4
- Cc1ccccc1/C(=N\CCCN(C)C)c1cccc2ccccc12 — lower, 8.8
- NCC[S-] — higher, 10.7

— the pKa sets of Baltruschat and Czodrowski (2020)
